Test results from PMC11921344, “Antimicrobial peptide DiPGLa-H exhibits the most outstanding anti-infective activity among the PGLa variants based on a systematic comparison” (Applied and Environmental Microbiology, 2025).
Where two headings read alike, the source gives them in different places. Where no end group is shown, it is not given here.

Key:
E. coli ATCC25922 = assay type: cell-based, Escherichia coli; settings: for MBC E. coli ATCC25922: ATCC25922, 4 h; for MIC E. coli ATCC25922: ATCC25922, 24 h
Description: (§1) The antibacterial activity was evaluated using a standard MIC and MBC assay according to the National Committee for Clinical Laboratory Standards (NCCLS). MIC, MBC assay, and time-kill curves for the optimal peptide are provided in the Supplementary Materials.
Antimicrobial Activity Assays. The antibacterial activity of the peptides was determined using a method designed from the National Committee for Clinical Laboratory Standards (NCCLS) in the United States. All the strains used in the experiment are preserved in the laboratory. Briefly, log phase bacterial cells were diluted in MHB to a final concentration of 0.5-1x10^5 CFU/mL. Subsequently, 50μL of different concentrations of polypeptides were incubated with 50 μL of bacterial solution in sterile 96-well plates. In the minimum inhibitory concentration (MIC) assay, […], and the minimum inhibitory concentration (MIC) was determined by the absorbance at 492 nm of the microplate reader, and the minimum inhibitory concentration (MIC) inhibited 95% of bacteria grow. Determination of minimum bactericidal concentration: the plate was incubated at 37°C for 4 hours, 50 μL of the mixture was taken out of each well, diluted with an appropriate amount of PBS, smeared on the agar plate, and cultured overnight. Colonies were counted and the initial CFU/well was retrospectively calculated the following day. The lowest concentration of peptide that kills 99.9% of bacterial cells is the minimum bactericidal concentration (µM), Each test was replicated at least 3 times.

A. baumannii ATCC19606 = assay type: cell-based, Acinetobacter baumannii; settings: for MBC A. baumannii ATCC19606: ATCC19606, 4 h; for MIC A. baumannii ATCC19606: ATCC19606, 24 h
Description: as §1
(§2) Antimicrobial Activity Assays. The antibacterial activity of the peptides was determined using a method designed from the National Committee for Clinical Laboratory Standards (NCCLS) in the United States. All the strains used in the experiment are preserved in the laboratory. Briefly, log phase bacterial cells were diluted in MHB to a final concentration of 0.5-1x10^5 CFU/mL. Subsequently, 50μL of different concentrations of polypeptides were incubated with 50 μL of bacterial solution in sterile 96-well plates. In the minimum inhibitory concentration (MIC) assay, the plate was incubated at 37°C for 24 h, and the minimum inhibitory concentration (MIC) was determined by the absorbance at 492 nm of the microplate reader, and the minimum inhibitory concentration (MIC) inhibited 95% of bacteria grow. Determination of minimum bactericidal concentration: the plate was incubated at 37°C for 4 hours, 50 μL of the mixture was taken out of each well, diluted with an appropriate amount of PBS, smeared on the agar plate, and cultured overnight. Colonies were counted and the initial CFU/well was retrospectively calculated the following day. The lowest concentration of peptide that kills 99.9% of bacterial cells is the minimum bactericidal concentration (µM), Each test was replicated at least 3 times.

P. aeruginosa ATCC27853 = assay type: cell-based, Pseudomonas aeruginosa; settings: for MBC P. aeruginosa ATCC27853: ATCC27853, 4 h; for MIC P. aeruginosa ATCC27853: ATCC27853, 24 h
Description: as §1, §2

S. aureus ATCC29213 = assay type: cell-based, Staphylococcus aureus; settings: for MBC S. aureus ATCC29213: ATCC29213, 4 h; for MIC S. aureus ATCC29213: ATCC29213, 24 h
Description: as §1, §2

S. aureus Mu50 = assay type: cell-based, Staphylococcus aureus MRSA; settings: for MBC S. aureus Mu50: Mu50, 4 h; for MIC S. aureus Mu50: Mu50, 24 h
Description: as §1, §2

Gram-negative bacteria = experiment: Geometric mean MIC and therapeutic index, Gram-negative; assay type: cell-based; settings: geometric mean of the peptide MICs against Gram-negative strains
Description: as §1, §2

Gram-positive bacteria = experiment: Geometric mean MIC and therapeutic index, Gram-positive; assay type: cell-based; settings: geometric mean of the peptide MICs against Gram-positive strains
Description: as §1, §2

all tested bacteria = experiment: Geometric mean MIC and therapeutic index, all strains; assay type: cell-based; settings: for reduced antibacterial efficacy compared with DiPGLa-H: from MICs of Table 2; for GMMIC All: geometric mean of the peptide MICs against all strains
Description: as §1, §2

MRSA = settings: cited from earlier work
Source text: (§3) To date, there is a lack of systematic comparative study on the bacteriostatic activity and biosafety of PGLa and its variants, which precludes the determination of the variant with the highest potential for application. It has been more than 30 years since the discovery of PGLa in 1983 to the recent discovery of new PGLa-derived peptides.

Pseudomonas aeruginosa = settings: cited from earlier work
Source text: as §3

E. coli = settings: cited from earlier work
Description: (§4) PGLa, an amphibian 21-residue cationic AMP, with a net charge of +4, was found in the skin of the toad Xenopus laevis ([6]). The minimum inhibitory concentration (MIC) of PGLa against Escherichia coli 25922 and S. aureus 25923 were 10–50 μg/mL and 50–100 μg/mL, respectively ([6]). […] The rep ...

S. aureus = settings: cited from earlier work
Description: as §4

[1] = test system: Acinetobacter nosocomial Ab113; settings: cited from earlier work
Source text: as §3

Helicobacter pylori = settings: cited from earlier work
Source text: as §3

[2] = test system: E. coli K88 outer membrane; experiment: Outer membrane integrity assay (NPN uptake); assay type: cell-based, Escherichia coli; settings: 4 µM peptide; relative to 10 µg/mL polymyxin B = 100%
Description: (§5) The outer and inner membrane integrity of bacterial cells treated with peptides was assessed using NPN and PI staining, respectively. Full details are provided in the Supplementary Materials.
Membrane permeabilization. Outer membrane integrity assay. The fluorescent probe NPN (Sigma-Aldrich, catalog no. 104043, ≥98%) was used to assess the outer membrane integrity of DiPGLa-H or mucin-treated E. coli K88. Briefly, log-medium E. coli K88 cells (OD600 = 0.2) were incubated with NPN (10 μM) in 5 mM HEPES buffer (pH 7.4, containing 5 mM glucose) for 30 min, and background fluorescence was recorded for subtraction. (excitation λ = 350 nm, emission λ = 420 nm) using a microplate reader (Varioskan Flash; Thermo, America). Subsequently, 100 μL of cell suspension was mixed with an equal volume of peptide solutions ranging in concentration from 4 to 64 μM in a sterile 96-well black plate. Fluorescence was recorded over time until no further increase in fluorescence was detected. Each test was performed independently, in duplicate, with three biological replicates, and results were converted to percent NPN uptake using the equation. NPN uptake (%) = (Fobs – Fbuffer)/ (Fpositive – Fbuffer) ×100%.
where Fobs is the observed fluorescence at a given peptide concentration, Fbuffer is the fluorescence of the buffer, and Fpositive is the fluorescence of NPN with microbial cells upon addition of 10 μg/mL polymyxin B (Sigma), which was used as a positive control because of its strong outer membrane-permeabilizing property. Untreated cell suspension served as the negative control.

[3] = test system: E. coli K88 inner membrane; experiment: Inner membrane integrity assay (PI); assay type: cell-based, Escherichia coli; settings: 4 µM, 16 µM and 64 µM peptide
Description: as §5
Inner membrane integrity assay. E. coli K88 cells were washed and resuspended in 0.01 mol l−1 of PBS (pH 7.4) to obtain an OD600 of 0.5, followed by the addition of 10 nmol l−1 of PI (Thermo Fisher Scientific, catalogue no. P1304MP) in the presence of […]. After incubation for 30 min, fluorescence was measured with the excitation wavelength at 535 nm and emission wavelength at 615 nm.

E. coli ATCC 25922 = settings: cited from earlier work
Description: as §4

S. aureus ATCC 25923 = settings: cited from earlier work
Description: as §4

E. coli K88 = assay type: cell-based, Escherichia coli
Description: as §1
as §2, with “The lowest concentration of peptide that kills 99.9% of bacterial cells is the minimum bactericidal concentration (µM), Each test was replicated at least 3 times.” left out

[4] = first of two independent studies
[5] = second of two independent studies

Row | Substance | MBC E. coli ATCC25922 (E. coli ATCC25922) [µM] | MIC E. coli ATCC25922 (E. coli ATCC25922) [µM] | MBC A. baumannii ATCC19606 (A. baumannii ATCC19606) [µM] | MIC A. baumannii ATCC19606 (A. baumannii ATCC19606) [µM] | MBC P. aeruginosa ATCC27853 (P. aeruginosa ATCC27853) [µM] | MIC P. aeruginosa ATCC27853 (P. aeruginosa ATCC27853) [µM] | MBC S. aureus ATCC29213 (S. aureus ATCC29213) [µM] | MIC S. aureus ATCC29213 (S. aureus ATCC29213) [µM] | MBC S. aureus Mu50 (S. aureus Mu50) | MIC S. aureus Mu50 (S. aureus Mu50) | GMMIC Gram-negative (Gram-negative bacteria) [µM] | GMMIC Gram-positive (Gram-positive bacteria) [µM] | reduced antibacterial efficacy compared with DiPGLa-H (all tested bacteria) | GMMIC All (all tested bacteria) [µM] | also measured
1 | KIAKVALKALKIAKGALKAL-NH2 (C-terminus assumed) [kiadin-1] | 64 | 32 | 4 | 4 | 16 | 8 | 16 | 16 | 32 (32) µM | 32 (32) µM | 11.31 | 22.63 | 2–8 times | 14.25 | MIC MRSA (MRSA; [4]): 3 µM; MIC MRSA (MRSA; [5]): 16 µg/mL; MIC Pseudomonas aeruginosa ATCC 25922 (Pseudomonas aeruginosa; [4]): 6 µM; MIC Pseudomonas aeruginosa ATCC 25922 (Pseudomonas aeruginosa; [5]): > 32 µg/mL
2 | GMASKAGSVLGKVAKVALKAAL-NH2 (C-terminus assumed) [PGLa-AM1] | > 64 | > 64 | 32 | 32 | > 64 | 64 | > 64 | > 64 | >64 (>64) µM | >64 (>64) µM | 53.82 | 64 |  | 57.02 | MIC E. coli (E. coli): 12.5 µM; MIC S. aureus (S. aureus): 25 µM; MIC Acinetobacter nosocomial Ab113 [1]: 128 µg/mL; MIC Helicobacter pylori (Helicobacter pylori): 1 µg/mL
3 | KIAKVALKAL-NH2 (C-terminus assumed) [PGLa-H] | > 128 | > 128 | > 128 | > 128 | > 128 | > 128 | > 128 | > 128 | >128 (>128) µM | >128 (>128) µM | 128 | 128 |  | 128 | outer membrane permeability (NPN uptake) [2]: failed to exhibit any discernible outer membrane permeability; PI-DNA fluorescence intensity [3]: relatively constant PI-DNA fluorescence intensity; MIC E. coli ATCC25922 (E. coli ATCC 25922): 23.6 µg/mL; MIC S. aureus ATCC 25923 (S. aureus ATCC 25923): 8.7 µg/mL
4 | KIAKGALKALKIAKVALKAL-NH2 (C-terminus assumed) [kiadin-2] | 16 | 8 | 4 | 4 | 8 | 4 | 32 | 32 | 32 (32) µM | 32 (32) µM | 4.76 | 32 | 2–8 times | 8.98 | 
5 | GMASKAGAIAGKIAKVALKAL-NH2 (C-terminus assumed) [PGLa] | > 64 | > 64 | 16 | 16 | 64 | 64 | 64 | 64 | >64 (>64) µM | >64 (>64) µM | 38.05 | 64 |  | 45.25 | MIC E. coli K88 (E. coli K88; lowest concentration inhibiting 95% of growth, MHB, 0.5-1x10^5 CFU/mL, 37°C 24 h, absorbance 492 nm, three independent experiments): 32 µM; MBC E. coli K88 (E. coli K88; lowest concentration killing >99.9% of cells, 37°C 4 h, plating, colony count, three independent trials): 64 µM; MIC E. coli 25922 (E. coli ATCC 25922): 10 to 50 µg/mL; MIC S. aureus 25923 (S. aureus ATCC 25923): 50 to 100 µg/mL
